Measured values as given in US8207293B2, “Peptides derived from maurocalcine used as vectors for intracellular addressing of molecules of interest” (Commissariat a l'Energie Atomique, priority 2004, dated 2012).

Experiments:
[1] = test system: CA1 hippocampal neurons, HEK293 cells, L6 cells; assay: Cell penetration of biotinylated peptide/Strept-Cy3 complexes in various cell cultures, confocal microscopy of fixed cells; type: cell-based; conditions: 100 nM, 30 min, ambient temperature
Procedure: Soluble streptavidin-cyanin 3 and streptavidin-cyanin 5 (Strept-Cy^3 and Strept-Cy^5, AMERSHAM) were mixed with 4 molar equivalents of biotinylated maurocalcine (1 mM) or biotinylated maurocalcine-derived peptide, in phosphate buffer (PBS, in mM: 136 NaCl, 1.47 Na2HPO4, 2.6 KCl, 1 CaCl2, 0.5 MgCl2, pH 7.2), for 2 hours at 37° C. and in the dark.
The cells were incubated with maurocalcine and the derived peptides, biotinylated and complexed with streptavidin-cyanin 3 or with streptavidin-cyanin 5, at the final concentration of 100 nM in PBS, in the dark and at ambient temperature, for 30 minutes to 1 hour. […] The Alexa-488 and Cy3 or propidium iodide (PI) fluorescences were excited sequentially and then recorded. The Cy3 fluorescence was excited using a 543 nm helium-neon laser beam and the fluorescence emission was recorded between 554 nm and 625 nm. […]
The primary rat hippocampal neurons and the cells of the HEK293 line and the L6 line (before and after differentiation) are incubated for 30 min at ambient temperature, with 100 nM or 333 nM of maurocalcine-derived peptide, biotinylated and complexed with streptavidin-Cy3, or else 100 nM or 333 nM of MCab/Strept-Cy3, as a control. The cells are fixed and the fluorescence is observed by confocal microscopy.

HEK293 cells = assay: Flow cytometry analysis of cellular penetration of complexes (trypsin/heparin treatment); type: cell-based, human; conditions: 10 nM to 1 μM complexes
Procedure: The cells are incubated with maurocalcine and the derived peptides, biotinylated and complexed with […], at the final concentration of 100 nM in PBS, in the dark and at ambient temperature for 1 hour. After 2 washes in PBS (PBS, in mM: […], 6.84 Na2HPO4, 3.16 NaH2PO4, pH 7.2), and the cells were treated with trypsin (1 mg/ml, INVITROGEN), for 10 min at 37° C., in order to remove the extracellular complexes and the plasma-membrane-bound complexes. After the incubation with trypsin, the cell suspension was centrifuged at 500 g and the cells were resuspended in PBS containing 1 μg/ml of propidium iodide (SIGMA). […] The analysis was carried out on live cells, using a flow cytometer (FACScalibur, BECTON DICKINSON). The data were recorded and analyzed using appropriate software (CellQuest, BD BIOSCIENCES). The live cells were sorted according to their size and their granulosity (forward/side scattering), over a total of 10 000 events.
The analysis is carried out as described in Example 1. For the heparin treatment experiments, the complexes were prepared in a heparin solution (bovine intestine heparin, sodium salt, SIGMA) and the cells were washed twice with the heparin solution, before and after incubation with the complexes prepared in the same heparin solution.
The cellular penetration was analyzed by flow cytometry, on cells incubated with the MCab/Strept-Cy3 complexes, and then treated with trypsin, so as to remove the complexes bound to the plasma membrane by means of lipids, specific receptors or heparan sulfate glycosaminoglycan (HPSG). It has been shown that this method makes it possible to effectively study the entry of penetrating peptides into cells (Richard et al., J. Biol. Chem., 2003, 278, 585-590).

[2] = test system: undifferentiated L6 cells; assay: Penetration kinetics in live undifferentiated L6 cells, confocal microscopy; type: cell-based, rat
Procedure: The L6 rat myogenic cell line (clone C5, EACC) is cultured in DMEM medium supplemented with 15% fetal bovine serum (LIFE TECHNOLOGIES) and 1% penicillin-streptomycin (Invitrogen).
The live cells were incubated with maurocalcine and the derived peptides, biotinylated and complexed with streptavidin-cyanin 3, at the final concentration of 100 nM in PBS, at ambient temperature in freshly changed culture medium, on the platform of an upright microscope (Nikon Eclipse 600 FN, equipped with a water-immersion objective (×40); aperture 0.8) and a confocal head (Nikon PCM 2000), or else with a Leica TCS-SP2 microscope, equipped with an objective (×100), according to the “XYZt” mode.
The penetration kinetics of the maurocalcine and of the derived peptides, biotinylated in complex with streptavidin-Cy3, was initiated by injecting 100 nM of the complex into the culture medium. The Cy3 fluorescence was excited by means of a 543 nm wavelength of an […] laser. The light emission was filtered (595±35 nm filter). The images were recorded and analyzed using the EZ2000 software (Nikon). The quantitative analysis of the relative fluorescence was carried out on the overall signal of all the cells, using appropriate software (Leica).

RyR1 receptor = target: T1, RyR1 receptor (Oryctolagus cuniculus, UniProt P11716); assay: Tritiated ryanodine binding assay on heavy sarcoplasmic reticulum vesicles; conditions: 100 nM complex
T1 construct: from tissue; host or cells: heavy sarcoplasmic reticulum vesicles (skeletal muscle implied)
T1 sequence (P11716 whole entry): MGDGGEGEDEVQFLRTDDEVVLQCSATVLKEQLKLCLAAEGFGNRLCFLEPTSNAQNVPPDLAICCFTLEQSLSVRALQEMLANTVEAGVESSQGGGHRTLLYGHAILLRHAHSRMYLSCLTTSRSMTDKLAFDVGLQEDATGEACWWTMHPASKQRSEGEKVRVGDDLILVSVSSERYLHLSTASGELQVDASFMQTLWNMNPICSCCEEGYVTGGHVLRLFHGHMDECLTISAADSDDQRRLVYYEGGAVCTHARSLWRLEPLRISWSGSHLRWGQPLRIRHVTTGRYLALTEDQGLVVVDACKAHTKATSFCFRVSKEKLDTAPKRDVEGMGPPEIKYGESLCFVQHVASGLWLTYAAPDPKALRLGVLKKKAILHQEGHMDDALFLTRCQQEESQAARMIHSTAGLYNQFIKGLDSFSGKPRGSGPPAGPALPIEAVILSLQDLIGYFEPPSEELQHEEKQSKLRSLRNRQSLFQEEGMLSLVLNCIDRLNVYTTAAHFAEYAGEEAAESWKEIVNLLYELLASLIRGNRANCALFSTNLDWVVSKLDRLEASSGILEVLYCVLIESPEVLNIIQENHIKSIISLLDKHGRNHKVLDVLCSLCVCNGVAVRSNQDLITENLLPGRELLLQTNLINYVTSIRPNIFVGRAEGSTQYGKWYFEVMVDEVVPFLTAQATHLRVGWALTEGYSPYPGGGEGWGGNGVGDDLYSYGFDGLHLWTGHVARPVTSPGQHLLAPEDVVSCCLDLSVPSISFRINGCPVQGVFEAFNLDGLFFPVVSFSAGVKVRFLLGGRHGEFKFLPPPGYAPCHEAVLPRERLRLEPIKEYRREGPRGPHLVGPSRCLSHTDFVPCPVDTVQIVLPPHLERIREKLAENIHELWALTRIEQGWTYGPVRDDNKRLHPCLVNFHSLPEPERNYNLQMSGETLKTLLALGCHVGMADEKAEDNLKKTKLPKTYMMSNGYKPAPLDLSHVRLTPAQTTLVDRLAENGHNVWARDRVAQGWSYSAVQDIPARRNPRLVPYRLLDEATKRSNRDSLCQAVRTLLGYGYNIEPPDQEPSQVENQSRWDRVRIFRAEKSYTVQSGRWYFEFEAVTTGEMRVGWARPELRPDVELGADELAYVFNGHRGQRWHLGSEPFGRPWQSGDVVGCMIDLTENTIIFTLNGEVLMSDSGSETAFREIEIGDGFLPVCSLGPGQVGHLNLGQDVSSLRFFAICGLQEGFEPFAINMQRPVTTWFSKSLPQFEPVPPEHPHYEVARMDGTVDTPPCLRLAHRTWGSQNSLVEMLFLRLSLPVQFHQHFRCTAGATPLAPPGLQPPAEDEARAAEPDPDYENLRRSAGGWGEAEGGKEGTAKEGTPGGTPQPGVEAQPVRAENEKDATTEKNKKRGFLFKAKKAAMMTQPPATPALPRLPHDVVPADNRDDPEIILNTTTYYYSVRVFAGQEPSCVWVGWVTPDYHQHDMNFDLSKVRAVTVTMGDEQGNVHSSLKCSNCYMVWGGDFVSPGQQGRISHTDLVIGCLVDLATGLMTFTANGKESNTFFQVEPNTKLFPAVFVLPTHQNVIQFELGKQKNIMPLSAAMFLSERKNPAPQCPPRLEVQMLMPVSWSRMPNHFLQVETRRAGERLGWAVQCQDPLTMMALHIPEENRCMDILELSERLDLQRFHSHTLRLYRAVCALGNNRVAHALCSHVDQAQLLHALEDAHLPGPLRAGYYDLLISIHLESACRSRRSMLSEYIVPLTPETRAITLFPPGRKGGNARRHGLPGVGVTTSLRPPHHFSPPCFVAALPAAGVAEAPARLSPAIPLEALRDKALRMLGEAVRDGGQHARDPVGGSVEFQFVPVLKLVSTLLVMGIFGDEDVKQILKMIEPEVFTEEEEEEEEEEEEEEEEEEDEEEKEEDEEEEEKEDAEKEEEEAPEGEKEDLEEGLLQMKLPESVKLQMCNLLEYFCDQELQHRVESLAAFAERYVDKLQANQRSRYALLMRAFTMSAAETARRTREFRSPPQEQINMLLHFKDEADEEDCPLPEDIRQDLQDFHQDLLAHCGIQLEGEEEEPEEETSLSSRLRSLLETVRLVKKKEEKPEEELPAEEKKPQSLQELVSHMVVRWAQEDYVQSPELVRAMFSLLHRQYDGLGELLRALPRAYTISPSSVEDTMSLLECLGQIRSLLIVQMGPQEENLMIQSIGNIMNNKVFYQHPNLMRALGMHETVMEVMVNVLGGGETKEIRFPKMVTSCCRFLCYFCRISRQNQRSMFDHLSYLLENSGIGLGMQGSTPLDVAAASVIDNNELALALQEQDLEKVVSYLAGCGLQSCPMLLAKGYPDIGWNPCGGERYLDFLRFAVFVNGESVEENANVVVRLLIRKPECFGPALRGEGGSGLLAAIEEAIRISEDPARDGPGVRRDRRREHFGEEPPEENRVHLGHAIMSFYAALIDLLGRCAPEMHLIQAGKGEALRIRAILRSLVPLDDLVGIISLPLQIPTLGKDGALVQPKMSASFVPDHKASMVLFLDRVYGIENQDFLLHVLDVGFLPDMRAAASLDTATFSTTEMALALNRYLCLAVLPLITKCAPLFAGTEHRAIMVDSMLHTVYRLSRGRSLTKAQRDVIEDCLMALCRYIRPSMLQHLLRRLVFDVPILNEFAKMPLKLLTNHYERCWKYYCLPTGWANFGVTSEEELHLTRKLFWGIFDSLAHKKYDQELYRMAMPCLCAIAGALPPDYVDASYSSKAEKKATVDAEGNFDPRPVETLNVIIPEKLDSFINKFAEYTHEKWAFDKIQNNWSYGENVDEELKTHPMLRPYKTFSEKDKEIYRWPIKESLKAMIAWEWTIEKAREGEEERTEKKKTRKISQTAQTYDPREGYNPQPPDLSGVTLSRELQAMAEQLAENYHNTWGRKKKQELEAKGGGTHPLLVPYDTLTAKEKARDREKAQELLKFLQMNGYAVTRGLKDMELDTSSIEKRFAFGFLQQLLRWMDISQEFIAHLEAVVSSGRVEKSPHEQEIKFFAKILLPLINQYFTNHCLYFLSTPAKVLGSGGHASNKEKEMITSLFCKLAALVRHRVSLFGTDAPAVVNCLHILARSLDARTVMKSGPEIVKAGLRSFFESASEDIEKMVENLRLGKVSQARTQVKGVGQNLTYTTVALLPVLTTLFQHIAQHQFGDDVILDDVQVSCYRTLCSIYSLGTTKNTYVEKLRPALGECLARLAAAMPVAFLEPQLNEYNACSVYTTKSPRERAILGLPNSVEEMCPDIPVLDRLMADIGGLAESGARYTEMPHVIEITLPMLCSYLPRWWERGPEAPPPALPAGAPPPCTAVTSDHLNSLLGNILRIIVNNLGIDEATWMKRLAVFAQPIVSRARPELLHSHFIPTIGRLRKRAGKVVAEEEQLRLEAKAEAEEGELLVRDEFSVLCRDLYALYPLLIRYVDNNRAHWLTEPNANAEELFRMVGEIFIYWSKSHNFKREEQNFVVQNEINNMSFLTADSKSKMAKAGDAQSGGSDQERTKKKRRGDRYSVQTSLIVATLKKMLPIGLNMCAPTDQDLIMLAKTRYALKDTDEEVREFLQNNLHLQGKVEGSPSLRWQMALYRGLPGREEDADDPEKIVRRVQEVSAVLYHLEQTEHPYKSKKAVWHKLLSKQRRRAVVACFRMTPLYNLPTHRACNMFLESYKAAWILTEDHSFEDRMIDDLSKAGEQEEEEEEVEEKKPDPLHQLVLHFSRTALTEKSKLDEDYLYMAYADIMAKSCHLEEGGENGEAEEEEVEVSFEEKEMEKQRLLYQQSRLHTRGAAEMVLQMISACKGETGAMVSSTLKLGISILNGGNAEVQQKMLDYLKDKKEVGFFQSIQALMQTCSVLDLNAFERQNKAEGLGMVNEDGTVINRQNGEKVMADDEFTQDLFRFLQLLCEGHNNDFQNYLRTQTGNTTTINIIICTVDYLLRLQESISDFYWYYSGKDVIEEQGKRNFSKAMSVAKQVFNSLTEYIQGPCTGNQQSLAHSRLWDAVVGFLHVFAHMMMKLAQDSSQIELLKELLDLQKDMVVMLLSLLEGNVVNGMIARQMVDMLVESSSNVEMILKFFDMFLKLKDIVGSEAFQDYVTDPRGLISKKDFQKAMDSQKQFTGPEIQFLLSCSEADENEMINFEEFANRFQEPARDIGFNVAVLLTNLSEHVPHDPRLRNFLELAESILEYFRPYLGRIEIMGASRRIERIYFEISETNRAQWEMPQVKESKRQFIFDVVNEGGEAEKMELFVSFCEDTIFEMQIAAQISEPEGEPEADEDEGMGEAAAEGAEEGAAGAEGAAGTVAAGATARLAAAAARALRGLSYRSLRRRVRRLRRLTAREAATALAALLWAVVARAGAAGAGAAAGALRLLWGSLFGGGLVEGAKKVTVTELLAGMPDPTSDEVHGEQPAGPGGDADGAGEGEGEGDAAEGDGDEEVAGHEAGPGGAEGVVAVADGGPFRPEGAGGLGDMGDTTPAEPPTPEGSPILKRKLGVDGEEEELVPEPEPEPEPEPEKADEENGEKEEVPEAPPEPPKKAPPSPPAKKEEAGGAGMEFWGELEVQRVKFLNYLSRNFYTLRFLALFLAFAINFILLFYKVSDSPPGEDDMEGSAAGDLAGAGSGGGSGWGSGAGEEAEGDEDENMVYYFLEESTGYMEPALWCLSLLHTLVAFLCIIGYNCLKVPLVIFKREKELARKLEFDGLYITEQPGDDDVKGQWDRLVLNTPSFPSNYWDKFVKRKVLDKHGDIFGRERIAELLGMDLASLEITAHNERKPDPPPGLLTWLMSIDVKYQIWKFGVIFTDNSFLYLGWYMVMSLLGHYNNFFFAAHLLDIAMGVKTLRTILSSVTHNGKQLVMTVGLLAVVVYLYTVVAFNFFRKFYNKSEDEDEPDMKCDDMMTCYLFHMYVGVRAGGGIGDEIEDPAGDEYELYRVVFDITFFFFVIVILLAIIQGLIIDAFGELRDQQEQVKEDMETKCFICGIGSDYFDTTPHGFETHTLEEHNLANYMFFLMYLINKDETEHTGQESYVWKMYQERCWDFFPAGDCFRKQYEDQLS
Procedure: The heavy sarcoplasmic reticulum vesicles are prepared according to the method of Kim et al. (J. Biol. Chem., 1983, 258, 9662-9668) modified as described in Marty et al. (J. Biol. Chem., 2000, 275, 8206-8212). The protein concentration is measured by the Biuret method.
The heavy sarcoplasmic reticulum vesicles (1 mg/ml) are incubated at 37° C. for 2 hours and 30 min, in reaction buffer comprising 5 nM [^3H]-ryanodine, 150 mM NaCl, 2 mM EGTA, 2 mM Ca^2+ (pCa=5) and 20 mM Hepes, pH 7.4. Maurocalcine, the maurocalcine-derived peptides and their biotinylated derivatives are added before the addition of the heavy sarcoplasmic reticulum vesicles. The [^3H]-ryanodine bound to the heavy sarcoplasmic vesicles is measured by filtration through Whatmann GF/B filters, followed by three washes with 5 ml of ice-cold washing buffer (150 mM NaCl, 20 mM Hepes, pH 7.4). The [^3H]-ryanodine retained on the filters is measured by liquid scintillation. The nonspecific binding is measured in the presence of […] ryanodine (20 μM). The results are given in the form of means±standard deviation. Each experiment is carried out in triplicate and repeated at least twice.

MCab/Strept-Cy3: biotinylated maurocalcine, complexed with cyanin-3-labeled streptavidin
Cy3 labeling of cells (transduction) [1]: strong uniform labeling of the plasma membrane and of the cytoplasm of all the cells
saturability of penetration (HEK293 cells): cannot be saturated
time of fluorescence peak in the plasma membrane (ROI-1) ([2]; 100 nM): 10 min
time at which labeling appears after addition ([2]; 100 nM in extracellular medium): 3 min
stimulation of [3H]-ryanodine binding to heavy sarcoplasmic reticulum vesicles (RyR1 receptor): conserve the ability to stimulate [^3H]-ryanodine binding
